# Measured values as given in patent publication US20260217672A1, “BENZAMIDE COMPOUNDS FOR TREATMENT OF BACTERIAL INFECTIONS” (Hoffmann-La Roche Inc., priority 2022, published 2026).
# Where two headings read alike, the source gives them in different places.
# Legend:
# [1] = test system: Escherichia coli ATCC 25922; experiment: Minimal Inhibitory Concentration (MIC) broth dilution assay; assay type: cell-based; details: read-out: MIC Escherichia coli ATCC 25922
# Experimental: (§1) The antibacterial activity of the compounds of the present invention was evaluated against the commonly used quality control strain Escherichia coli ATCC 25922 and the rifampin-resistant mutant strain Klebsiella pneumonia ATCC 43816. Both were originally derived from human clinical samples and are available from ATCC (American Type Culture Collection). The in vitro potency of compounds to inhibit Escherichia coli (ATCC 25922) and Klebsiella pneumonia (ATCC 43816) growth was assessed by the MIC (Minimal Inhibitory Concentration) broth dilution method. Specifically compound dilutions were prepared from 10 mM DMSO stock solutions as follows: i) serial 2-fold dilution in 20 μL DMSO were prepared in a master plate (Greiner, Cat No: 651201), ii) 180 μL sterile distilled water was added to each aliquot and iii) 10 μL diluted compounds were transferred into a new assay plate (Costar, 3599).
# (§2) Vials of each test microorganisms were maintained frozen in the vapor phase of a liquid nitrogen freezer. Single-use frozen vials of the two strains Escherichia coli ATCC 25922 (KWIKSTIK, 0335K) and Klebsiella pneumonia ATCC 43816, with predetermined CFU/mL, were taken out from the freezer, thawed at room temperature, and diluted in Cation-Adjusted Mueller Hinton Broth (CAMHB) to achieve a final inoculum of 5×10^5 CFU/mL. 90 μL bacteria containing broth was dispensed to the assay plate containing the pre-dispensed compound dilutions and mixed by pipetting 5 times.
# (§3) Then the assay plates were incubated for 20 hours at 35° C. in ambient air. Following incubation, the MIC ([…]), the lowest concentration of drug that inhibits visible growth of the microorganism was read with the help of a magnification mirror and recorded.
# [2] = test system: Klebsiella pneumonia ATCC 43816; experiment: as above; assay type: cell-based; details: Klebsiella pneumoniae, read-out: MIC Klebsiella pneumoniae ATCC43816
# Experimental: as §1, §2, §3
SMILES,"MIC ([1]; ATCC25922, 20 h)","MIC ([2]; ATCC43816, 20 h)","MIC ([1]; ATCC25922, broth dilution in CAMHB, 5×10^5 CFU/mL, 20 hours at 35° C.)","MIC ([2]; ATCC43816, broth dilution in CAMHB, 5×10^5 CFU/mL, 20 hours at 35° C.)"
"NCCCN1CCCC1c1cccc(C(=O)Nc2ccc(S(=O)(=O)N3CCN(c4cc(C(F)(F)F)cc(Cl)n4)CC3)cc2)c1 (stereo not drawn) [Example 066, 3-[1-(3-Aminopropyl)pyrrolidin-2-yl]-N-[4-[4-[6-chloro-4-(trifluoromethyl)-2-pyridyl]piperazin-1-yl]sulfonylphenyl]benzamide]",0.51 µg/mL,1 µg/mL,,
"NCCCNCc1ccc(C(=O)Nc2ccc(S(=O)(=O)N3CCN(c4cc(C(F)(F)F)c(C5CC5)cn4)CC3)cc2)cc1 [Example 008, 4-[(3-Aminopropylamino)methyl]-N-[4-[4-[5-cyclopropyl-4-(trifluoromethyl)-2-pyridyl]piperazin-1-yl]sulfonylphenyl]benzamide]",,7.7 µg/mL,,
"O=C(Nc1ccc(S(=O)(=O)N2CCN(c3cc(C(F)(F)F)cc(Cl)n3)CC2)cc1)c1ccc(CCN2C3CNCC2C3)cc1 [Example 075, N-[4-[4-[6-chloro-4-(trifluoromethyl)-2-pyridyl]piperazin-1-yl]sulfonylphenyl]-4-[2-(3,6-diazabicyclo[3.1.1]heptan-6-yl)ethyl]benzamide]",,,2.7 µg/mL,5.5 µg/mL
"CCc1cc(C(F)(F)F)cc(N2CCN(S(=O)(=O)c3ccc(NC(=O)c4ccc(CNCCCN)cc4)cc3)CC2)n1 [Example 011, 4-[(3-Aminopropylamino)methyl]-N-[4-[4-[6-ethyl-4-(trifluoromethyl)-2-pyridyl]piperazin-1-yl]sulfonylphenyl]benzamide]",3.8 µg/mL,7.6 µg/mL,,
"NCc1ccc(O)c(C(=O)Nc2ccc(S(=O)(=O)N3CCN(c4cc(C(F)(F)F)cc(Cl)n4)CC3)cc2)c1 [Example 056, 5-(Aminomethyl)-N-[4-[4-[6-chloro-4-(trifluoromethyl)-2-pyridyl]piperazin-1-yl]sulfonylphenyl]-2-hydroxy-benzamide]",3.8 µg/mL,3.8 µg/mL,,
"NCCCOc1ccc(C(=O)Nc2ccc(S(=O)(=O)N3CCN(c4cc(C(F)(F)F)cc(Cl)n4)CC3)cc2)cc1OCCCN [Example 065, 3,4-Bis(3-Aminopropoxy)-N-[4-[4-[6-chloro-4-(trifluoromethyl)-2-pyridyl]piperazin-1-yl]sulfonylphenyl]benzamide]",0.26 µg/mL,0.52 µg/mL,,
"NCCCn1cc(C(=O)N2CCc3cc(S(=O)(=O)N4CCN(c5cc(C(F)(F)F)cc(Cl)n5)CC4)ccc32)cn1 [Example 037, [1-(3-Aminopropyl)pyrazol-4-yl]-[5-[4-[6-chloro-4-(trifluoromethyl)-2-pyridyl]piperazin-1-yl]sulfonylindolin-1-yl]methanone]",3.7 µg/mL,7.5 µg/mL,,
"O=C(CN1CCNCC1)Nc1ccc(S(=O)(=O)N2CCN(c3cc(C(F)(F)F)cc(Cl)n3)CC2)cc1 [Example 040, N-[4-[4-[6-chloro-4-(trifluoromethyl)-2-pyridyl]piperazin-1-yl]sulfonylphenyl]-2-piperazin-1-yl-acetamide]",2.1 µg/mL,8.3 µg/mL,,
"NCCCNCc1cccc(C(=O)Nc2ccc(S(=O)(=O)N3CCN(c4cc(C(F)(F)F)cc(Cl)n4)CC3)c(O)c2)c1 [Example 028, 3-[(3-Aminopropylamino)methyl]-N-[4-[4-[6-chloro-4-(trifluoromethyl)-2-pyridyl]piperazin-1-yl]sulfonyl-3-hydroxy-phenyl]benzamide]",4.6 µg/mL,9.3 µg/mL,,
"NCCCNCc1cccc(C(=O)Nc2ccc(S(=O)(=O)N3CCN(c4cc(C(F)(F)F)cc(Cl)n4)CC3)cc2O)c1 [Example 031, 3-[(3-Aminopropylamino)methyl]-N-[4-[4-[6-chloro-4-(trifluoromethyl)-2-pyridyl]piperazin-1-yl]sulfonyl-2-hydroxy-phenyl]benzamide]",3.9 µg/mL,3.9 µg/mL,,
"N#CN=S(=O)(c1ccc(NC(=O)c2cccc(CCNCCCN)c2)cc1)N1CCN(c2cc(C(F)(F)F)cc(Cl)n2)CC1 (stereo not drawn) [Example 025, 3-[2-(3-Aminopropylamino)ethyl]-N-[4-[S-[4-[6-chloro-4-(trifluoromethyl)-2-pyridyl]piperazin-1-yl]-N-cyano-sulfonimidoyl]phenyl]benzamide]",1.3 µg/mL,5.1 µg/mL,,
"CC1CN(c2cc(C(F)(F)F)cc(Cl)n2)CCN1S(=O)(=O)c1ccc(NC(=O)c2cccc(CNCCCN)c2)cc1 (stereo not drawn) [Example 021, 3-[(3-Aminopropylamino)methyl]-N-[4-[4-[6-chloro-4-(trifluoromethyl)-2-pyridyl]-2-methyl-piperazin-1-yl]sulfonylphenyl]benzamide]",3.9 µg/mL,7.8 µg/mL,,
"COc1ccc(CN2CCC3CN(C)CC32)cc1C(=O)Nc1ccc(S(=O)(=O)N2CCN(c3cc(C(F)(F)F)cc(Cl)n3)CC2)cc1 (stereo not drawn) [Example 063, N-[4-[4-[6-chloro-4-(trifluoromethyl)-2-pyridyl]piperazin-1-yl]sulfonylphenyl]-2-methoxy-5-[(5-methyl-2,3,3a,4,6,6a-hexahydropyrrolo[2,3-c]pyrrol-1-yl)methyl]benzamide]",4.3 µg/mL,4.3 µg/mL,,
"N[C@@H]1CCN(c2cccc(C(=O)Nc3ccc(S(=O)(=O)N4CCN(c5cc(C(F)(F)F)cc(Cl)n5)CC4)cc3)c2)C1 [Example 051, N-[4-[4-[6-chloro-4-(trifluoromethyl)-2-pyridyl]piperazin-1-yl]sulfonylphenyl]-3-[(3R)-3-aminopyrrolidin-1-yl]benzamide]",0.56 µg/mL,1.1 µg/mL,,
"NC1CC12CCN(CCc1ccc(C(=O)Nc3ccc(S(=O)(=O)N4CCN(c5cc(C(F)(F)F)cc(Cl)n5)CC4)cc3)cc1)C2 (stereo not drawn) [Example 074, 4-[2-(2-Amino-5-azaspiro[2.4]heptan-5-yl)ethyl]-N-[4-[4-[6-chloro-4-(trifluoromethyl)-2-pyridyl]piperazin-1-yl]sulfonylphenyl]benzamide]",2.8 µg/mL,2.8 µg/mL,,
"NCCOc1cccc(C(=O)Nc2ccc(S(=O)(=O)N3CCN(c4cc(C(F)(F)F)cc(Cl)n4)CC3)cc2)c1 [Example 048, 3-(2-Aminoethoxy)-N-[4-[4-[6-chloro-4-(trifluoromethyl)-2-pyridyl]piperazin-1-yl]sulfonylphenyl]benzamide]",0.48 µg/mL,0.97 µg/mL,,
"NCCCNCc1ccnc(C(=O)Nc2ccc(S(=O)(=O)N3CCN(c4cc(C(F)(F)F)cc(Cl)n4)CC3)cc2)c1 [Example 058, 4-[(3-Aminopropylamino)methyl]-N-[4-[4-[6-chloro-4-(trifluoromethyl)-2-pyridyl]piperazin-1-yl]sulfonylphenyl]pyridine-2-carboxamide]",3.8 µg/mL,3.8 µg/mL,,
"CN(C)C(=O)CCNCc1cccc(C(=O)Nc2ccc(S(=O)(=O)N3CCN(c4cc(C(F)(F)F)cc(Cl)n4)CC3)cc2)c1 [Example 086, N-[4-[4-[6-chloro-4-(trifluoromethyl)-2-pyridyl]piperazin-1-yl]sulfonylphenyl]-3-[[[3-(dimethylamino)-3-oxo-propyl]amino]methyl]benzamide]",2.4 µg/mL,,,
"Cc1cc(C(F)(F)F)cc(N2CCN(S(=O)(=O)c3ccc(NC(=O)c4cccc(CNCCCN)c4)cc3)CC2)n1 [Example 018, 3-[(3-Aminopropylamino)methyl]-N-[4-[4-[6-methyl-4-(trifluoromethyl)-2-pyridyl]piperazin-1-yl]sulfonylphenyl]benzamide]",0.64 µg/mL,2.6 µg/mL,,
"NC1CC(CNCc2cccc(C(=O)Nc3ccc(S(=O)(=O)N4CCN(c5cc(C(F)(F)F)cc(Cl)n5)CC4)cc3)c2)C1 (stereo not drawn) [Example 077, 3-[[(3-Aminocyclobutyl)methylamino]methyl]-N-[4-[4-[6-chloro-4-(trifluoromethyl)-2-pyridyl]piperazin-1-yl]sulfonylphenyl]benzamide]",0.68 µg/mL,2.7 µg/mL,,
"COC(=O)c1cc(Cl)nc(N2CCN(S(=O)(=O)c3ccc(NC(=O)c4cccc(CNCCCN)c4)cc3)CC2)c1 [Example 019, Methyl 2-[4-[4-[[3-[(3-aminopropylamino)methyl]benzoyl]amino]phenyl]sulfonylpiperazin-1-yl]-6-chloro-pyridine-4-carboxylate]",2.6 µg/mL,5.2 µg/mL,,
"Cc1cnc(N2CCN(S(=O)(=O)c3ccc(NC(=O)c4ccc(CCNCCCN)cc4)cc3)CC2)cc1C(F)(F)F [Example 013, 4-[2-(3-Aminopropylamino)ethyl]-N-[4-[4-[5-methyl-4-(trifluoromethyl)-2-pyridyl]piperazin-1-yl]sulfonylphenyl]benzamide]",0.94 µg/mL,,,
"O=C1CC(CNCc2cccc(C(=O)Nc3ccc(S(=O)(=O)N4CCN(c5cc(C(F)(F)F)cc(Cl)n5)CC4)cc3)c2)CN1 (stereo not drawn) [Example 085, N-[4-[4-[6-chloro-4-(trifluoromethyl)-2-pyridyl]piperazin-1-yl]sulfonylphenyl]-3-[[(5-oxopyrrolidin-3-yl)methylamino]methyl]benzamide]",1.2 µg/mL,,,
